Measured values as given in US20200069691A1, “HETEROCYCLIC COMPOUNDS AS HIV PROTEASE INHIBITORS” (Merck Sharp & Dohme Corp., priority 2016, published 2020).

Target: T1, wild-type HIV-1 protease (Human immunodeficiency virus type 1 group M subtype B, UniProt P04585)
T1 construct: Escherichia coli expressed wild-type HIV-1 protease protein
Assay: Assay for Inhibition of Microbial Expressed HIV Protease (peptide substrate cleavage, LC-MS/MS readout)
Assay type: biochemical
Conditions: E. coli expressed wild-type HIV-1 protease, mean of at least two independent experiments, read-out: HIV Pr Enzyme HIV1 PR IC50
Method in brief: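 E. coli-expressed wild-type HIV-1 protease ([…]) was preincubated with inhibitor 30 min at room temperature in pH 5.5 acetate buffer (100 mM NaCl, 0.1% BSA). Then 400 μM octapeptide substrate was added and reacted 1 h at 30 °C; inhibition came from LC-MS/MS product peak areas, mean of ≥2 experiments.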

| SMILES | IC50 [nM] |
| --- | --- |
| C[S+]([O-])c1cccc(-c2ncc3c(n2)CN(C(=O)c2cc(CN4C(=N)N[C@](CCCC(F)(F)F)(c5ccc(F)cc5)C4=O)ccc2C(F)(F)F)C3)c1 (stereo partly drawn) [Compound 21, (5R)-5-(4-fluorophenyl)-2-imino-3-[3-({2-[3-(methylsulfmyl)phenyl]-5,7-dihydro-6H-pyrrolo[3,4-d]pyrimidin-6-yl}carbonyl)-4-(trifluoromethyl)benzyl]-5-(4,4,4-trifluorobutyl)imidazolidin-4-one] | 2.31 |
| CC(C)CCC1(c2ccccc2)NC(=N)N(Cc2cccc(C(=O)N3CCN(C)C(=O)C3)c2)C1=O (stereo not drawn) [Compound 283, 4-[(3-{[2-imino-4-(3-methylbutyl)-5-oxo-4-phenylimidazolidin-1-yl]methyl}phenyl)carbonyl]-1-methylpiperazin-2-one] | 31.8 |
| N=C1NC(CCC2CC2)(c2cc(F)cc(F)c2)C(=O)N1Cc1ccc(C(F)(F)F)c(C(=O)N2CCn3c(nnc3C(F)(F)F)C2)c1 (stereo not drawn) [Compound 82, 5-(2-cyclopropylethyl)-5-(3,5-difluorophenyl)-2-imino-3-[4-(trifluoromethyl)-3-{[3-(trifluoro-methyl)-5,6-dihydro-[1,2,4]triazolo-[4,3-a]pyrazin-7(8H)-yl]carbonyl}-benzyl]imidazolidin-4-one] | 13.1 |
| CC(C)CCC1(c2ccc(F)cc2)NC(=N)N(Cc2ccc(C(F)(F)F)c(C(=O)N3Cc4nccnc4C3)c2)C1=O (stereo not drawn) [Compound 168, 3-[3-(5,7-dihydro-6H-pyrrolo[3,4-b]pyrazin-6-ylcarbonyl)-4-(trifluoromethyl)benzyl]-5-(4-fluorophenyl)-2-imino-5-(3-methylbutyl)imidazolidin-4-one] | 38.6 |
| CC(C)CCC1(c2ccc(F)cc2)NC(=N)N(Cc2ccc(C(F)(F)F)c(C(=O)N3C[C@H]4OCc5cnnn5[C@H]4C3)c2)C1=O (stereo partly drawn) [Compound 169] | 38.6 |
| N#CCc1ccc(-c2ncc3c(n2)CN(C(=O)c2cc(CN4C(=N)N[C@](CCCC(F)(F)F)(c5ccc(F)cc5)C4=O)ccc2C(F)(F)F)C3)cn1 [Compound 61, [5-(6-{[5-{[(4R)-4-(4-fluorophenyl)-2-imino-5-oxo-4-(4,4,4-trifluorobutyl)imidazolidin-1-yl]methyl}-2-(trifluoromethyl)-phenyl]carbonyl}-6,7-dihydro-5H-pyrrolo[3,4-d]pyrimidin-2-yl)pyridin-2-yl]acetonitrile] | 6.6 |
| N=C1NC(c2ccccc2)(c2ccccc2)C(=O)N1Cc1cc(C(=O)N2Cc3ccccc3C2)ccn1 [Compound 396, 3-{[4-(1,3-dihydro-2H-isoindol-2-ylcarbonyl)pyridin-2-yl]methyl}-2-imino-5,5-diphenylimidazolidin-4-one] | 16.7 |
| CC(C)CC1(c2ccccc2)NC(=N)N(Cc2cccc(C(=O)N3CCN(c4ccccn4)CC3)c2)C1=O (stereo not drawn) [Compound 321, 2-imino-5-(2-methylpropyl)-5-phenyl-3-{3-[(4-pyridin-2-ylpiperazin-1-yl)carbonyl]benzyl} imidazolidin-4-one] | 56.8 |
| CC(C)CCC1(c2ccc(F)cc2)NC(=N)N(Cc2cccc(C(=O)N3Cc4ccccc4C3)c2)C1=O (stereo not drawn) [Compound 229, 3-[3-(1,3-dihydro-2H-isoindol-2-ylcarbonyl)benzyl]-5-(4-fluorophenyl)-2-imino-5-(3-methylbutyl)imidazolidin-4-one] | 13.1 |
| CC(C)C[C@]1(c2ccccc2)NC(=N)N([C@H](C)c2cccc(C(=O)N3CCN(C)C(=O)C3)c2)C1=O [Compound 328, 4-[(3-{(1R)-1-[2-imino-4-(2-methylpropyl)-5-oxo-4-phenylimidazolidin-1-yl]ethyl}phenyl)carbonyl]-1-methylpiperazin-2-one] | 64.8 |
| CCOC(=O)c1cn2c(n1)CN(C(=O)c1cccc(CN3C(=N)NC(c4ccccc4)(c4ccccc4)C3=O)c1)CC2 [Compound 245, ethyl 7-({3-[(2-imino-5-oxo-4,4-diphenylimidazolidin-1-yl)methyl]phenyl}carbonyl)-5,6,7,8-tetrahydroimidazo[1,2-a]pyrazine-2-carboxylate] | 17.1 |
| CC(C)CC1(c2ccccc2)NC(=N)N(Cc2ccc(Cl)c(C(=O)N3Cc4cccnc4C3)c2)C1=O (stereo not drawn) [Compound 366, 3-[4-chloro-3-(5,7-dihydro-6H-pyrrolo[3,4-b]pyridin-6-ylcarbonyl)benzyl]-2-imino-5-(2-methylpropyl)-5-phenylimidazolidin-4-one] | 5.08 |
| CN(C)C(=O)C1c2ccccc2CN1C(=O)c1cccc(CN2C(=N)NC(c3ccccc3)(c3ccccc3)C2=O)c1 (stereo not drawn) [Compound 299, 2-({3-[(2-imino-5-oxo-4,4-diphenylimidazolidin-1-yl)methyl]phenyl}carbonyl)-N,N-dimethyl-2,3-dihydro-1H-isoindole-1-carboxamide] | 43.9 |
| N=C1NC(c2ccc(F)cc2)(c2ccc(F)cc2)C(=O)N1Cc1cncc(C(=O)N2Cc3ccccc3C2)c1 [Compound 394, 3-{[5-(1,3-dihydro-2H-isoindol-2-ylcarbonyl)pyridin-3-yl]methyl}-5,5-bis(4-fluorophenyl)-2-iminoimidazolidin-4-one] | 93.1 |
| CC(c1cccc(C(=O)N2Cc3cncnc3C2)c1)N1C(=N)NC(c2ccccc2)(c2ccccc2)C1=O (stereo not drawn) [Compound 266, 3-{1-[3-(5,7-dihydro-6H-pyrrolo[3,4-b]pyrazin-6-ylcarbonyl)phenyl]ethyl}-2-imino-5.5-diphenylimidazolidin-4-one] | 26.1 |
| C[C@H](c1cccc(C(=O)N2Cc3ccccc3C2)c1)N1C(=N)NC(c2ccc(F)cc2)(c2ccc(F)cc2)C1=O [Compound 231, 3-{(1R)-1-[3-(1,3-dihydro-2H-isoindol-2-ylcarbonyl)phenyl]ethyl}-5,5-bis(4-fluorophenyl)-2-iminoimidazolidin-4-one] | 13.3 |
| C[C@H](c1cccc(C(=O)N2Cc3ccccc3C2)c1)N1C(=N)NC(c2ccccc2)(c2ccccc2)C1=O [Compound 187, 3-{(1R)-1-[3-(1,3-dihydro-2H-isoindol-2-ylcarbonyl)phenyl]ethyl}-2-imino-5,5-diphenylimidazolidin-4-one] | 3.67 |
| CC(C)CCC1(c2cccc(-c3cccnc3)c2)NC(=N)N(Cc2cccc(C(=O)N3Cc4cccnc4C3)c2)C1=O (stereo not drawn) [Compound 360, 3-[3-(5,7-dihydro-6H-pyrrolo[3,4-b]pyridin-6-ylcarbonyl)benzyl]-2-imino-5-(3-methylbutyl)-5-(3-pyridin-3-ylphenyl)imidazolidin-4-one] | 95.1 |
| COC(=O)N1CCN(C(=O)c2cccc(CN3C(=N)NC(c4ccc(F)cc4)(c4cccc(-c5cccc(C#N)c5)c4)C3=O)c2)CC1 (stereo not drawn) [Compound 234, methyl 4-[(3-{[4-(3′-cyanobiphenyl-3-yl)-4-(4-fluorophenyl)-2-imino-5-oxoimidazolidin-1-yl]methyl}phenyl)-carbonyl]piperazine-1-carboxylate] | 14.2 |
| N#Cc1ncc2c(n1)CN(C(=O)c1cncc(CN3C(=N)NC(c4ccc(F)cc4)(c4ccc(F)cc4)C3=O)c1)C2 [Compound 393, 6-[(5-{[4,4-bis(4-fluorophenyl)-2-imino-5-oxoimidazolidin-1-yl]methyl}pyridin-3-yl)carbonyl]-6,7-dihydro-5H-pyrrolo[3,4-d]pyrimidine-2-carbonitrile] | 67.1 |
| CC(C)CCC1(c2ccccc2)NC(=N)N(Cc2cccc(C(=O)N3Cc4cncnc4C3)c2)C1=O (stereo not drawn) [Compound 227, 3-[3-(5,7-dihydro-6H-pyrrolo[3,4-d]pyrimidin-6-ylcarbonyl)benzyl]-2-imino-5-(3-methylbutyl)-5-phenylimidazolidin-4-one] | 12.6 |
| N=C1NC(c2ccccc2)(c2ccccc2)C(=O)N1Cc1cccc(C(=O)N2CCC(Oc3ccccc3)CC2)c1 [Compound 333, 2-imino-3-{3-[(4-phenoxypiperidin-1-yl)carbonyl]benzyl}-5,5-diphenylimidazolidin-4-one] | 69.6 |
| N=C1N[C@](CCCC(F)(F)F)(c2ccc(F)cc2)C(=O)N1Cc1ccc(C(F)(F)F)c(C(=O)N2Cc3cnc(-c4cnn5c4CCC5)nc3C2)c1 [Compound 34, (5R)-3-[3-{[2-(5,6-dihydro-4H-pyrrolo[1,2-b]pyrazol-3-yl)-5,7-dihydro-6H-pyrrolo[3,4-d]pyrimidin-6-yl]carbonyl}-4-(trifluoromethyl)benzyl]-5-(4-fluorophenyl)-2-imino-5-(4,4,4-trifluorobutyl)imidazolidin-4-one] | 3.36 |
| CCC(c1cccc(C(=O)N2Cc3ccccc3C2)c1)N1C(=N)NC(c2ccccc2)(c2ccccc2)C1=O (stereo not drawn) [Compound 225, 3-{1-[3-(1,3-dihydro-2H-isoindol-2-ylcarbonyl)phenyl]propyl}-2-imino-5,5-diphenylimidazolidin-4-one] | 11.9 |
| N=C1N[C@](CCCC(F)(F)F)(c2ccc(F)cc2)C(=O)N1Cc1ccc(C(F)(F)F)c(C(=O)N2Cc3cnc(Cl)nc3C2)c1 [Compound 35, (5R)-3-{3-[(2-chloro-5,7-dihydro-6H-pyrrolo[3,4-d]pyrimidin-6-yl)carbonyl]-4-(trifluoromethyl)-benzyl}-5-(4-fluorophenyl)-2-imino-5-(4,4,4-trifluorobutyl)-imidazolidin-4-one] | 3.42 |
| CC(C)CC1(c2ccccc2)NC(=N)N(Cc2cccc(C(=O)N3Cc4nccnc4C3)c2)C1=O (stereo not drawn) [Compound 235, 3-[3-(5,7-dihydro-6H-pyrrolo[3,4-b]pyrazin-6-ylcarbonyl)benzyl]-2-imino-5-(2-methylpropyl)-5-phenylimidazolidin-4-one] | 14.4 |
| N#Cc1cccc(C2(c3ccc(F)cc3)NC(=N)N(Cc3cccc(C(=O)N4Cc5ccccc5C4)c3)C2=O)c1 (stereo not drawn) [Compound 262, 3-{1-[3-(1,3-dihydro-2H-isoindol-2-ylcarbonyl)benzyl]-4-(4-fluorophenyl)-2-imino-5-oxoimidazolidin-4-yl}benzonitrile] | 24.4 |
